In patent publication US5801149A, “Inhibition of signal transduction molecules” (Joslin D-abetes Center, Inc., priority 1995, dated 1998):
Non-standard residues stand in square brackets, D forms with d. Residues, ends and D or L forms follow the SMILES beside them. No end group written: not given here. Pmp = N[C@@H](Cc1ccc(CP(=O)(O)O)cc1)C(=O)O; pY = N[C@@H](Cc1ccc(OP(=O)(O)O)cc1)C(=O)O

Key:
[1] = tested on: association of PtdIns 3-kinase with mT/pp60^c-src complex; test: Peptide competition of PtdIns 3-kinase association with immunopurified mT/pp60^c-src; assay type: biochemical; settings: peptide pre-incubated with whole cell lysates
Procedure: (§1) In vitro association of phosphatidylinositol 3-kinase with immunopurified mT/pp60^c-src was assayed as follows. Washed mT/pp60^c-src immune complexes were incubated with purified PtdIns 3-kinase in 750 μl to 1 ml of standard lysis buffer (see above) at 4° C. on a platform rocker. The typical incubation was for 2-3 hours after which the complexes were collected by a brief centrifugation and washed twice with 1% […], twice with 0.5M LiCl in 0.1M Tris-HCl, and twice with TNE.
(§2) Mammalian whole cell lysates were prepared from confluent 10 cm cell culture plates. The monolayer was washed once with 4° C. PBS and lysed in 1.0 ml of standard lysis buffer. After 10 minutes of incubation on a rocker platform at 4° C., the cells were scrape harvested and lysates cleared by centrifugation at 12,000×g for 5 minutes at 4° C. Lysates were used immediately for association experiments with the immunopurified mT/pp60^c-src complex.
(§3) Phosphatidylinositol kinase assays and protein kinase assays were performed as follows. Phosphatidylinositol kinase assays were performed directly on the immune complex as described, Whitman et al., 1985, supra; Auger et al., 1989, supra. Sonicated phospholipids were added to the washed beads and the reaction was initiated with the addition of 50 μM ATP, 5-25 μCi [γ^32 P]ATP (3000/Ci/mmole), 5 mM MgCl2 in 20 mM HEPES (pH 7.5). Reactions were incubated for 5 minutes at room temperature. The 50 μl reactions were stopped by the addition of 80 μl of 1M HCl and 1 μl of 500 mM EDTA. The lipids were extracted with 160 μl of methanol:chloroform (1:1) and the organic layer was collected for analysis.
(§4) The major site of tyrosine phosphorylation on mT by pp60^c-src is tyrosine 315. […]
(§5) Proteins that were prevented from associating with the mT/pp60^c-src complex by the phosphorylated peptide were also determined. […]

[2] = target: T1, association of PtdIns 3-kinase with mT/pp60^c-src complex (Rattus norvegicus, UniProt Q63787); test: as above; assay type: biochemical; settings: Tran^35 S-labelled Rat-1 whole cell lysates, gel electrophoresis
T1 construct: from tissue; host or cells: rat liver (PtdIns 3-kinase); mT/pp60c-src complex immunopurified from baculovirus-infected Sf9 cells
T1 sequence (Q63787 whole entry, one chain of several): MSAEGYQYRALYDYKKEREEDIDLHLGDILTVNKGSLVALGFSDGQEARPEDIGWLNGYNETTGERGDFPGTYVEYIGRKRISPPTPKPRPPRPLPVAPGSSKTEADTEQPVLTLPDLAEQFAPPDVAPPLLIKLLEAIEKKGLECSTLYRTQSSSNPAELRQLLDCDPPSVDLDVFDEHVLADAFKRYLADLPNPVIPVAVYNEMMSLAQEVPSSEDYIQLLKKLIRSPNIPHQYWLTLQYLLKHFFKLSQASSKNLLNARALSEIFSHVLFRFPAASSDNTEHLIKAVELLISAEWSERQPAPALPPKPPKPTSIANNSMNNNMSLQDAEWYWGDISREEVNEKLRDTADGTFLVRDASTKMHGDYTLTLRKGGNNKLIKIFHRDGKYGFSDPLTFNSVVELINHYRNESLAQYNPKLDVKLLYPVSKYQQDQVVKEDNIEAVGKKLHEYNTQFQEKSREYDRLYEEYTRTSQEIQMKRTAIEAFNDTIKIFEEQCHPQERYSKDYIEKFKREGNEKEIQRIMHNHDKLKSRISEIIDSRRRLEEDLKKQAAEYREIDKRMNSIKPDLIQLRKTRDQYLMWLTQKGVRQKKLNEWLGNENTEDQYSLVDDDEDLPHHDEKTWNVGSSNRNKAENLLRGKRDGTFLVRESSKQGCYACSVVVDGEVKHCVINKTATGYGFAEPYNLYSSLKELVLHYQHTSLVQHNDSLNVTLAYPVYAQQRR
Procedure: as §1, §2, §3, §4, §5

[3] = target: T2, association between pp60^c-grc /mT and PI 3-kinase (Mus musculus, UniProt P26450); settings: presence of vanadate; Auger et al., 1992; cited from earlier work
T2 construct: endogenous in cells; host or cells: Balb/3T3 cells (PI 3-kinase); pp60c-src/mT from baculovirus-infected Sf9 cells
T2 sequence (P26450 whole entry): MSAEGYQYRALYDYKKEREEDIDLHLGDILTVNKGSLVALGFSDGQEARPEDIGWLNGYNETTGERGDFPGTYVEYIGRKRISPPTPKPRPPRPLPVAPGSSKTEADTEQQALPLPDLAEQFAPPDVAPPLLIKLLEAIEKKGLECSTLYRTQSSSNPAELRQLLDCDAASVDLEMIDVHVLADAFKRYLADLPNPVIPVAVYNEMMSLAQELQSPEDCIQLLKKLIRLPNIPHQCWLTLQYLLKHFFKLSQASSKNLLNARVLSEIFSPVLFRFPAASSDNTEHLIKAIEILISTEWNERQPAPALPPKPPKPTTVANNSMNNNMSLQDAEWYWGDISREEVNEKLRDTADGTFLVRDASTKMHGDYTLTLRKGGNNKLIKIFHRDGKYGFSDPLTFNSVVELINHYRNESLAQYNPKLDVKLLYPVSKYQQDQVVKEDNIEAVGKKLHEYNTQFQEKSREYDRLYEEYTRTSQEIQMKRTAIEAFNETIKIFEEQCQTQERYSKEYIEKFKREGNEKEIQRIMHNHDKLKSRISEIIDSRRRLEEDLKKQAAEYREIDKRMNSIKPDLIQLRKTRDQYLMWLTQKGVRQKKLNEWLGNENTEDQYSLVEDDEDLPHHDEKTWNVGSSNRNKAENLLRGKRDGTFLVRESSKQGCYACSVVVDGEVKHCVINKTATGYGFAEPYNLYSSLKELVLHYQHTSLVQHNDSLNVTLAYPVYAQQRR

[4] = tested on: SH2 domains of P13-kinase P85; test: SH2 domain binding of GXVPML analog peptides (FIG. 2); settings: peptide GXVPML, X varied
Description: (§6) In these experiments, one or both hydrogen atoms were replaced on Pmp at the carbon position between the phenyl ring and the phosphonate.

[5] = target: T3, Rat PTPase 1B (Rattus norvegicus, UniProt P20417); test: PTPase 1B peptide dephosphorylation (Km) and inhibition (Ki); assay type: biochemical
T3 construct: cloning the full-length cDNA into the bacterial expression vector, PKK233-2; made in house; host or cells: bacteria (vector PKK233-2)
T3 sequence (P20417 1-432): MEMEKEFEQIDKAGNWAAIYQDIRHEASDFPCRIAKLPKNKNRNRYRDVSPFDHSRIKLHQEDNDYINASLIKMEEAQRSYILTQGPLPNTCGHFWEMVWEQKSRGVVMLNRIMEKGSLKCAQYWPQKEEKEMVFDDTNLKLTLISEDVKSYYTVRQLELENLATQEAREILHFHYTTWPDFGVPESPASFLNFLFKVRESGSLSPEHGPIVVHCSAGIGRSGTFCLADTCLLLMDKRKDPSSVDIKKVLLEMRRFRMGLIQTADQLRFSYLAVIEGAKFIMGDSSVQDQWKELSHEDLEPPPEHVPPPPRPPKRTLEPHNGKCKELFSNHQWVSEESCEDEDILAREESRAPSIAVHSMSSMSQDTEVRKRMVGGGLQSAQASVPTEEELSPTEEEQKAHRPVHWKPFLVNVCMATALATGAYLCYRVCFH
Procedure: The phosphopeptides were used as substrates of PTPase 1B, a single catalytic domain PTPase with a […] tissue distribution (Hunter et al., 1989, cell 58:1013). Rat PTPase 1B (Guan et al., 1990, Proc. Natl., Acad. Sci. USA 87:1501) was obtained by PCR and cloning the full-length cDNA into the bacterial expression vector, PKK233-2.
Sequence specificity for peptide dephosphorylation was observed, with apparent Km values ranging from <2 μM for the phospho-middle t sequence to >2 mM for pTyr itself (Table 3).
Several phosphono peptides were tested for the ability to inhibit PTPase 1B activity and KI values determined by methods known to those skilled in the art.

[6] = Amino acid side chain pK titration; assay type: physicochemical; settings: 0.2M solution titrated with 6N HCl
[7] = target: SH2 domain of Src (Homo sapiens, UniProt P12931)
SH2 domain of Src, sequence (P12931 151-248 limits assumed): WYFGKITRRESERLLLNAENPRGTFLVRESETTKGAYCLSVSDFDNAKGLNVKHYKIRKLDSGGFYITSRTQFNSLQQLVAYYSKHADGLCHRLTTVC
Description: as §6

[8] = target: T2, association between pp60^c-grc /mT and PI 3-kinase; test: Inhibition of in vitro association of cytosolic PI 3-kinase activity (Balb/3T3 lysate) with immunopurified pp60^c-grc /mT; assay type: biochemical; settings: absence of sodium vanadate (active PTPases); peptide at about ID50
Description: Inhibition of the in vitro Association of PI 3-Kinase Activity With Immunopurified pp60^c-grc /mT. Baculovirus-expressed pp60^c-grc /mT complex was immunopurified from infection Sf9 insect cell (Piwnica-Worms et al., 1990, J. Virol. 64:61-68) lysates as described (Auger et al., 1990, 1992, J. BioL Chem. 267:5408-5415). PI 3-kinase activity was obtained directly from crude Balb/3T3 cell lysates as follows. After washing confluent 10 cm dishes with phosphate-buffered saline, Balb/3T3 cells were treated with lysis buffer (137 mM NaCI, 20 mM Hepes, 1 mM MgCl2, 1 mM CaCl2, 10% glycerol, 1% Nonidet P-40, and 1 μg/ml each of leupeptin, pepstatin A and aprotinin, pH 7.25) in the presence or absence of 0.15 mM sodium vanadate. Following a 10 min incubation with lysis buffer, cells were scrape-harvested and particulate debris was removed from the lysates by centrifugation at 12,000×g for 5 min. at 4° C. Varying concentrations of peptides were added directly to the lysates and incubated at 4° C. for 30 min.
Lysate-peptide mixtures were combined with protein A-Sepharose beads containing immunoprecipitated pp60^c-grc /mT complexes. After washing, the beads were used to catalyze phosphatidylinositol phosphorylation as described (Whitman et al., 1985, Nature 315:239-242; Auger et al., 1989, Cell 57:167-175, 1990, Methods in Inositide Res. pp. 159-166). […]

[9] = target: T4, p85 SH2 domains (SH2/GST fusion protein) (Homo sapiens, UniProt P27986); test: Biospecific interaction analysis of binding to p85 SH2 domains; settings: steady-state extrapolation, Scatchard-like analysis
T4 construct: GST
T4 sequence (P27986 333-428 limits assumed): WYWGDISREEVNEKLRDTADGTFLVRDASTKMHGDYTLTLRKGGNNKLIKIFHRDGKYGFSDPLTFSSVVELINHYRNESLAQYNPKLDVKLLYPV
Procedure: Therefore, mT-pY315 binding to p85 SH2 domains was analyzed using biospecific interaction analysis as previously described to obtain a more accurate estimate for KD. Series of data were obtained during real-time binding experiments with different concentrations of SH2/GST fusion protein (data not shown).

RENEYMPMAPQIH [unphosphorylated peptide, unphosphorylated version of the hamster mT peptide]
effect on association of PtdIns 3-kinase with mT/pp60^c-src ([1]; listed as non-phosphorylated peptide): had no effect on the association
effect on association of PtdIns 3-kinase with mT/pp60^c-src ([1]; listed as unphosphorylated version of the peptide): did not affect the association
effect on association of labelled proteins (110 kDa doublet, 85 kDa) with mT/pp60^c-src [2]: did not affect this association
activity on association between pp60^c-grc /mT and PI 3-kinase [3]: no detectable activity

GXVPML (Pmp): peptide GXVPML (SEQ ID NO: 45) with X = Pmp (G[Pmp]VPML)
ED50 [4]: 1.0 ± 0.1 µM

N[C@@H](Cc1ccc(OP(=O)(O)O)cc1)C(=O)O [phosphotyrosine, reference compound]
Km ([5]; apparent Km as substrate): > 2000 µM
Km ([5]; apparent Km, phosphotyrosine and pY-peptides as substrates): > 2000 µM
side chain pK3 [6]: 5.7

CC[C@H](C)[C@H](NC(=O)[C@H](CCC(=O)O)NC(=O)[C@H](CCC(=O)O)NC(=O)[C@H](Cc1ccc(OP(=O)(O)O)cc1)NC(=O)[C@H](CCC(N)=O)NC(C)=O)C(=O)N1CCC[C@H]1C(N)=O [QXEEIP (pTyr)] (Ac-Q[pY]EEIP-NH2)
IC50 [7]: 5.7 ± 0.7 µM

CSCC[C@H](NC(=O)[C@@H]1CCCN1C(=O)[C@H](CCSC)NC(=O)[C@H](Cc1ccc(OP(=O)(O)O)cc1)NC(=O)[C@H](CCC(=O)O)NC(=O)[C@H](CCC(=O)O)NC(=O)[C@@H](N)CCC(=O)O)C(=O)N[C@@H](CCC(=O)O)C(=O)N[C@@H](CC(=O)O)C(=O)N[C@@H](CC(C)C)C(=O)N[C@@H](Cc1ccc(O)cc1)C(=O)O [mT-pY315, EEEpYMPMEDLY] (H-EEE[pY]MPMEDLY-OH)
inhibition of association between pp60^c-grc /mT and PI 3-kinase [8]: obliterated in the absence of vanadate
estimated KD [9]: 0.01 µM
